Patent US20260207560A1, “PLURALITY OF GRANULES” (priority 2022, published 2026)
Converted amounts (≈) assume the structure as drawn.

How the values were obtained:
[1] = Solubility of active ingredient in volatile solvents (visual); conditions: for solubility: thermodynamic from solid, Solubility of the active ingredient; for solubility / Solubility of the active ingredient: visual; for Solubility of the active ingredient: listed as active ingredient
Method: The active ingredient was dissolved in different solvents and the stability of the solution was assessed after being held overnight at ambient temperature. The following solvents were studied: ethanol, 50:50 EtOH:Water, 0.1 M HCl, pH 3 citric acid buffer, 5% SLS aq. and 5% Tween 80 aq.
This study involved assessing the solubility and the chemical stability of the active ingredient in different volatile solvents for use in wet granulation. The solubility was measured visually after mixing (by the disappearance of undissolved solids). Increasing quantities of each solvent were added as detailed above.

[2] = Forced degradation study of the active substance (HPLC assay, observations)

CCS(=O)(=O)Nc1ccc2c(c1)nc(C(C)(C)C)n2CC1CCC(F)(F)CC1 [Compound I, N-(2-(tert-butyl)-1-((4,4-difluorocyclohexyl)methyl)-1H-benzimidazol-5-yl)ethanesulfonamide]
solubility ([1]; 0.1 M HCl, simulated gastric fluid): 7000 µg/mL (≈ 16.9 mM)
Solubility of the active ingredient ([1]; 0.1 M HCl): > 7000 µg/mL
Time to dissolve ([1]; 5% SLS aq., 0.6 mg/mL): 70 min
Time to dissolve (DND = did not dissolve) ([1]; 5% SLS aq., 3 mg/mL): DND
Time to dissolve (DND = did not dissolve) ([1]; 5% SLS aq., 7 mg/mL): DND
solubility ([1]; 5% Tween 80 aq., aqueous with cosolvent or surfactant or cyclodextrin, 5% Tween 80): < 600 µg/mL
Time to dissolve (DND = did not dissolve) ([1]; 5% Tween 80 aq., 0.6 mg/mL): DND
Time to dissolve (DND = did not dissolve) ([1]; 5% Tween 80 aq., 3 mg/mL): DND
Time to dissolve (DND = did not dissolve) ([1]; 5% Tween 80 aq., 7 mg/mL): DND
solubility ([1]; 50:50 EtOH:water, aqueous with cosolvent or surfactant or cyclodextrin, 50:50 EtOH:water): < 600 µg/mL
Time to dissolve (DND = did not dissolve) ([1]; 50:50 EtOH:water, 0.6 mg/mL): DND
Time to dissolve (DND = did not dissolve) ([1]; 50:50 EtOH:water, 3 mg/mL): DND
Time to dissolve (DND = did not dissolve) ([1]; 50:50 EtOH:water, 7 mg/mL): DND
solubility ([1]; aqueous 5% SLS, aqueous with cosolvent or surfactant or cyclodextrin): > 600 µg/mL
solubility ([1]; ethanol, organic solvent or mixture): 7000 µg/mL (≈ 16.9 mM)
Solubility of the active ingredient ([1]; ethanol): > 7000 µg/mL
solubility ([1]; pH 3 citric acid buffer, pH 3, aqueous buffer, pH 3 citric buffer): > 600 µg/mL
Time to dissolve ([1]; pH 3 citric acid buffer, 0.6 mg/mL): 180 min
Time to dissolve (DND = did not dissolve) ([1]; pH 3 citric acid buffer, 3 mg/mL): DND
Time to dissolve (DND = did not dissolve) ([1]; pH 3 citric acid buffer, 7 mg/mL): DND
Sample observations ([2]; Test 1 Control (solution, ambient temperature)): Clear colourless solution. No change over study period.
Assay of active substance ([2]; Test 1 solution control, 0 days): 99.40 area %
Assay of active substance ([2]; Test 1 solution control, 3 days): 99.42 area %
Assay of active substance ([2]; Test 1 solution control, 7 days): 99.30 area %
Assay of active substance ([2]; Test 1 solution control, 11 days): 99.39 area %
Sample observations ([2]; Test 2 Solid state 100° C.): Off-white solid turning to very faint orange solid over study
Assay of active substance ([2]; Test 2 solid state at 100° C., 3 days): 99.43 area %
Assay of active substance ([2]; Test 2 solid state at 100° C., 7 days): 99.40 area %
Sample observations ([2]; Test 3 Acid 60° C.): Clear colourless solution. No change over study period.
Sample observations ([2]; Test 3 Acid (1M, ambient temperature)): Clear colourless solution. No change over study period.
Assay of active substance ([2]; Test 3 acid (1M) ambient temperature, 3 days): 99.40 area %
Assay of active substance ([2]; Test 3 acid (1M) ambient temperature, 7 days): 99.41 area %
Assay of active substance ([2]; Test 3 acid (1M) at 60° C. until day 7, 80° C. until day 11, 11 days): 98.87 area %
Assay of active substance ([2]; Test 3 acid (1M) at 60° C., 3 days): 99.37 area %
Assay of active substance ([2]; Test 3 acid (1M) at 60° C., 7 days): 99.35 area %
Sample observations ([2]; Test 4 Base 40° C.): Clear colourless solution. No change over study period.
Sample observations ([2]; Test 4 Base (0.5M, ambient temperature)): Clear colourless solution. No change over study period.
Assay of active substance ([2]; Test 4 base (0.5M) ambient temperature, 3 days): 99.40 area %
Assay of active substance ([2]; Test 4 base (0.5M) ambient temperature, 7 days): 99.37 area %
Assay of active substance ([2]; Test 4 base (0.5M) at 60° C. until day 7, 80° C. until day 11, 11 days): 99.16 area %
Assay of active substance ([2]; Test 4 base (0.5M) at 60° C., 3 days): 99.34 area %
Assay of active substance ([2]; Test 4 base (0.5M) at 60° C., 7 days): 99.32 area %
Sample observations ([2]; Test 5 Heat 60° C. (solution)): Clear colourless solution. No change over study period
Assay of active substance ([2]; Test 5 solution at 60° C. until day 7, 80° C. until day 11, 11 days): 98.00 area %
Assay of active substance ([2]; Test 5 solution at 60° C., 3 days): 99.13 area %
Assay of active substance ([2]; Test 5 solution at 60° C., 7 days): 99.34 area %
Sample observations ([2]; Test 6 Peroxide (1.5%)): Clear colourless solution. No change over study period
Assay of active substance ([2]; Test 6 peroxide (1.5%), 3 days): 98.50 area %
Assay of active substance ([2]; Test 6 peroxide (1.5%), 7 days): 97.75 area %
Assay of active substance ([2]; Test 6 peroxide (1.5%), 13 days): 96.58 area %
Sample observations ([2]; Test 7 Photostability (Solution Control)): Clear colourless solution. No change over study period.
Assay of active substance ([2]; Test 7 photocontrol solution): 99.40 area %
Sample observations ([2]; Test 8 Photostability (Solution Treated)): Clear colourless solution turning to a clear yellow solution
Assay of active substance ([2]; Test 8 photo treated solution, 1.92 million lux hours, near-UV 374.6 Whm^−2): 74.53 area %
Sample observations ([2]; Test 9 Photostability (Solid Control)): Off white solid. No change over study period.
Assay of active substance ([2]; Test 9 photocontrol solid): 99.40 area %
Sample observations ([2]; Test 10 Photostability (Solid Treated)): Off-white solid turning to very faint orange solid over study
Assay of active substance ([2]; Test 10 phototreated solid, 1.92 million lux hours, near-UV 374.6 Whm^−2): 99.31 area %
Forced degradation outcome (summary) ([2]; peroxide, 1M acid, 0.5M base and solution when extended to 80° C.): slight degradation
Forced degradation outcome (summary) ([2]; solution at room temperature, solid at 100° C., 1M acid and 0.5M base at room temperature and 60° C., solution at 60° C., photostability as a solid): stable to degradation
Forced degradation outcome (summary) ([2]; solution under photostability conditions): Major degradation
